Laboratory results as given in patent US20140005163A1 (NOVARTIS AG, priority 2010, published 2014).
Converted amounts (≈) assume the structure as drawn.

Key:
[1] = test system: PKB Ser473 phosphorylation in Rat1-myr-HA-p110 delta cells; assay: Reverse protein array assay, PKB Ser473 phosphorylation in Rat1-myr-p110 delta cells; assay type: cell-based; conditions: read-out: p-PKB IC50
Outline: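 Compound exposure lasted 30 min in Rat1 cells bearing membrane-targeted HA-p110 isoforms, using 8 serial concentrations. Arrayed lysates, each spotted at four dilutions, gave relative fluorescence signals for phospho-Ser473 PKB.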

Solubility at pH 6.8 = assay type: physicochemical; conditions: pH 6.8, aqueous buffer, thermodynamic from solid; read-out: solubility
Outline: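 Following the procedure of Zhou et al. (2007), compound solubility was determined at pH 6.8.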

mTOR = biological target: T1, mTOR (Homo sapiens, UniProt P42345); assay: Biochemical assay for m-TOR by TR-FRET; conditions: 8 μM ATP, 400 nM GFP-4EBP1, 0.5 nM mTOR
T1 construct: purchased Invitrogen Corporation (Carlsbad/CA, USA) PV4753
Outline: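 Enzyme 0.5 nM, GFP-4EBP1 400 nM, ATP 8 μM (all final); 50 mM HEPES pH 7.5, 10 mM MnCl2, 1 mM DTT; rt. Detection: Tb-α-p4EBP1 [pT46] 0.5 nM in EDTA, TR-FRET, 15 min. Reference compound on every plate, 16-point duplicate dilutions.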

T1 sequence (P42345 1360-2549 limits assumed): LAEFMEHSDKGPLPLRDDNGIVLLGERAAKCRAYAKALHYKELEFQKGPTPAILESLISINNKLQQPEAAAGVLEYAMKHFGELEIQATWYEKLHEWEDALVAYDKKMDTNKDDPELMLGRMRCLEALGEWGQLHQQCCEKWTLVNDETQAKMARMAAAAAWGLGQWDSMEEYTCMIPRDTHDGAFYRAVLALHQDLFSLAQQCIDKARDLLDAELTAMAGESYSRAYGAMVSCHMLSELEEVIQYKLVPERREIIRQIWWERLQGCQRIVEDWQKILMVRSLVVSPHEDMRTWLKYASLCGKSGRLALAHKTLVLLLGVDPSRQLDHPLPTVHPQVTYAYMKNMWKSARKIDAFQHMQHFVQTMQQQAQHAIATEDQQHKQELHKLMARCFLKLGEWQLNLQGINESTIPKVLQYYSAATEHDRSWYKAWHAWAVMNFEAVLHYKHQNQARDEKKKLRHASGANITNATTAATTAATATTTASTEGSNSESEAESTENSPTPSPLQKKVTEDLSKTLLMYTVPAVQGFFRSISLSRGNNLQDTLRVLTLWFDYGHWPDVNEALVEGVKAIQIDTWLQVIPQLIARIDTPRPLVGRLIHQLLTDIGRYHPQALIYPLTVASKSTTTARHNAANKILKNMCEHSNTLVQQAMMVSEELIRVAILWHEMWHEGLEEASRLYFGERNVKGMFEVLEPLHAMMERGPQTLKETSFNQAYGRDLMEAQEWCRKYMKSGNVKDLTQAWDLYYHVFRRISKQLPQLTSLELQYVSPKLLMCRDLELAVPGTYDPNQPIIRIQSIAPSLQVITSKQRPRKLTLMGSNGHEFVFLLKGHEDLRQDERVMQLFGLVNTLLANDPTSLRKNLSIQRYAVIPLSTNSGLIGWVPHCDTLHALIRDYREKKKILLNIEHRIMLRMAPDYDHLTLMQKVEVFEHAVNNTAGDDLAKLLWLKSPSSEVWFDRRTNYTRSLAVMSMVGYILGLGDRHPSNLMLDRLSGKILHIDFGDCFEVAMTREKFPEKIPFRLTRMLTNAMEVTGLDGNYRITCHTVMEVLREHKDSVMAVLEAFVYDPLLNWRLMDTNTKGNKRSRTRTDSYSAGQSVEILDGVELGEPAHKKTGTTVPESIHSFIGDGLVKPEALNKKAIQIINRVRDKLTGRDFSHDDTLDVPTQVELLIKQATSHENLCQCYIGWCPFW

IC50 [1] [nM] | solubility (Solubility at pH 6.8) [µg/mL] | IC50 (mTOR) [nM] | Structure (SMILES)
58 | 32 (≈ 79.7 µM) | 68 | COc1ncc(-c2ccc3ncc4c(c3c2)n(-c2cn(C)nc2C)c(=O)n4C)cn1 [Example 17.2, 1-(1,3-Dimethyl-1H-pyrazol-4-yl)-8-(2-methoxy-pyrimidin-5-yl)-3-methyl-1,3-dihydro-imidazo[4,5-c]quinolin-2-one]
48 | 59 (≈ 138 µM) | 15 | CCN(C)c1cncc(-c2ccc3ncc4c(c3c2)n(-c2cn(C)nc2C)c(=O)n4C)c1 [Example 176, 1-(1,3-Dimethyl-1H-pyrazol-4-yl)-8-[5-(ethyl-methyl-amino)-pyridin-3-yl]-3-methyl-1,3-dihydro-imidazo[4,5-c]quinolin-2-one]
21 | 5 (≈ 11.6 µM) | 17 | CCn1cc(-n2c(=O)n(C)c3cnc4ccc(-c5cnc(F)c(NC)c5)cc4c32)c(C)n1 [Example 150.1, 1-(1-Ethyl-3-methyl-1H-pyrazol-4-yl)-8-(6-fluoro-5-methylamino-pyridin-3-yl)-3-methyl-1,3-dihydro-imidazo[4,5-c]quinolin-2-one]
44 | 7 (≈ 16.4 µM) | 15 | CCn1cc(-n2c(=O)n(C)c3cnc4ccc(-c5ccc(N(C)C)nc5)cc4c32)c(C)n1 [Example 4.2, 8-(6-Dimethylamino-pyridin-3-yl)-1-(1-ethyl-3-methyl-1H-pyrazol-4-yl)-3-methyl-1,3-dihydro-imidazo[4,5-c]quinolin-2-one]
46 | 19 (≈ 44.6 µM) | < 3 | CNC(=O)c1ccc(-c2ccc3ncc4c(c3c2)n(-c2cn(C)nc2C)c(=O)n4C)cc1 [Example 43.1, 4-[1-(1,3-Dimethyl-1H-pyrazol-4-yl)-3-methyl-2-oxo-2,3-dihydro-1H-imidazo[4,5-c]quinolin-8-yl]-N-methyl-benzamide]
631 | 13 (≈ 31.4 µM) | 512 | CCOc1cc(-c2ccc3ncc4c(c3c2)n(-c2cn(C)nc2C)c(=O)n4C)ccn1 [Example 91, 1-(1,3-Dimethyl-1H-pyrazol-4-yl)-8-(2-ethoxy-pyridin-4-yl)-3-methyl-1,3-dihydro-imidazo[4,5-c]quinolin-2-one]
105 | 3 (≈ 6.54 µM) | 11 | CCOc1cc(-c2ccc3ncc4c(c3c2)n(-c2cn(CCO)nc2C)c(=O)n4C)cnc1C [Example 211.2, 8-(5-Ethoxy-6-methyl-pyridin-3-yl)-1-[1-(2-hydroxy-ethyl)-3-methyl-1H-pyrazol-4-yl]-3-methyl-1,3-dihydro-imidazo[4,5-c]quinolin-2-one]
118 | 13 (≈ 30.1 µM) | 79 | Cc1nn(C(C)C)cc1-n1c(=O)n(C)c2cnc3ccc(-c4cnc(F)c(N)c4)cc3c21 [Example 149.1, 8-(5-Amino-6-fluoro-pyridin-3-yl)-1-(1-isopropyl-3-methyl-1H-pyrazol-4-yl)-3-methyl-1,3-dihydro-imidazo[4,5-c]quinolin-2-one]
9 | > 472 | 5 | CCNc1cc(-c2ccc3ncc4c(c3c2)n(-c2cn(C(C)C)nc2C)c(=O)n4C)cnc1CO [Example 155.3, 8-(5-Ethylamino-6-hydroxymethyl-pyridin-3-yl)-1-(1-isopropyl-3-methyl-1H-pyrazol-4-yl)-3-methyl-1,3-dihydro-imidazo[4,5-c]quinolin-2-one]
91 | 4 (≈ 8.45 µM) | 52 | COCCOc1ccc(-c2ccc3ncc4c(c3c2)n(-c2cn(C)nc2C)c(=O)n4C)cc1OC [Example 30.1, 1-(1,3-Dimethyl-1H-pyrazol-4-yl)-8-[3-methoxy-4-(2-methoxy-ethoxy)-phenyl]-3-methyl-1,3-dihydro-imidazo[4,5-c]quinolin-2-one]
125 | > 428 | 45 | Cc1nn(C(C)C)cc1-n1c(=O)n(C)c2cnc3ccc(-c4ccc(CO)nc4)cc3c21 [Example 16.3, 8-(6-hydroxymethyl-pyridin-3-yl)-1-(1-isopropyl-3-methyl-1H-pyrazol-4-yl)-3-methyl-1,3-dihydro-imidazo[4,5-c]quinolin-2-one]
15 | 3 (≈ 7.14 µM) | 8 | Cc1ncc(-c2ccc3ncc4c(c3c2)n(-c2cn(C)nc2Cl)c(=O)n4C)cc1N [Example 88.1, 8-(5-Amino-6-methyl-pyridin-3-yl)-1-(3-chloro-1-methyl-1H-pyrazol-4-yl)-3-methyl-1,3-dihydro-imidazo[4,5-c]quinolin-2-one]
768 | 55 (≈ 121 µM) | 72 | Cc1nn(C)cc1-n1c(=O)n(C)c2cnc3ccc(-c4ccc(N5CC[C@@H](O)C5)nc4)cc3c21 [Example 212.1, 1-(1,3-Dimethyl-1H-pyrazol-4-yl)-8-[6-((R)-3-hydroxy-pyrrolidin-1-yl)-pyridin-3-yl]-3-methyl-1,3-dihydro-imidazo[4,5-c]quinolin-2-one]
211 | > 500 | 548 | CCOc1ccc(-c2ccc3ncc4c(c3c2)n(-c2c(C)nn(CC(=O)N(C)C)c2C)c(=O)n4C)cn1 [Example 3.12, 2-{4-[8-(6-Ethoxy-pyridin-3-yl)-3-methyl-2-oxo-2,3-dihydro-imidazo[4,5-c]quinolin-1-yl]-3,5-dimethyl-pyrazol-1-yl}-N,N-dimethyl-acetamide]
86 | 27 (≈ 61 µM) | 31 | CCn1cc(-n2c(=O)n(C)c3cnc4ccc(-c5cncc(OC(C)C)c5)cc4c32)c(C)n1 [Example 58.4, 1-(1-Ethyl-3-methyl-1H-pyrazol-4-yl)-8-(5-isopropoxy-pyridin-3-yl)-3-methyl-1,3-dihydro-imidazo[4,5-c]quinolin-2-one]
347 | 92 (≈ 194 µM) | 79 | COCCOc1cc(-c2ccc3ncc4c(c3c2)n(-c2cn(C)nc2C)c(=O)n4C)cnc1CO [Example 244, 1-(1,3-Dimethyl-1H-pyrazol-4-yl)-8-[6-hydroxymethyl-5-(2-methoxy-ethoxy)-pyridin-3-yl]-3-methyl-1,3-dihydro-imidazo[4,5-c]quinolin-2-one]
12 | > 472 | 10 | CCNc1cc(-c2ccc3ncc4c(c3c2)n(-c2cn(CC)nc2C)c(=O)n4C)cnc1COC [Example 157, 8-(5-Ethylamino-6-methoxymethyl-pyridin-3-yl)-1-(1-ethyl-3-methyl-1H-pyrazol-4-yl)-3-methyl-1,3-dihydro-imidazo[4,5-c]quinolin-2-one]
91 | 43 (≈ 96.7 µM) | 31 | CCOc1cc(-c2ccc3ncc4c(c3c2)n(-c2cn(C)nc2C)c(=O)n4C)cnc1CO [Example 243, 1-(1,3-Dimethyl-1H-pyrazol-4-yl)-8-(5-ethoxy-6-hydroxymethyl-pyridin-3-yl)-3-methyl-1,3-dihydro-imidazo[4,5-c]quinolin-2-one]
275 | 47 (≈ 101 µM) | 81 | Cc1nn(C)cc1-n1c(=O)n(C)c2cnc3ccc(-c4cnc5c(c4)nc(N(C)C)n5C)cc3c21 [Example 70, 8-(2-Dimethylamino-3-methyl-3H-imidazo[4,5-b]pyridin-6-yl)-1-(1,3-dimethyl-1H-pyrazol-4-yl)-3-methyl-1,3-dihydro-imidazo[4,5-c]quinolin-2-one]
595 | 427 (≈ 881 µM) | 324 | COCCN(C)C(=O)Cn1cc(-n2c(=O)n(C)c3cnc4ccc(-c5ccccc5)cc4c32)c(C)n1 [Example 137, N-(2-Methoxy-ethyl)-N-methyl-2-[3-methyl-4-(3-methyl-2-oxo-8-phenyl-2,3-dihydro-imidazo[4,5-c]quinolin-1-yl)-pyrazol-1-yl]-acetamide]
26 | 16 (≈ 41.5 µM) | 4 | Cc1nn(C)cc1-n1c(=O)n(C)c2cnc3ccc(-c4ccc(N)nc4)cc3c21 [Example 23.1, 8-(6-Amino-pyridin-3-yl)-1-(1,3-dimethyl-1H-pyrazol-4-yl)-3-methyl-1,3-dihydro-imidazo[4,5-c]quinolin-2-one]
18 | 45 (≈ 109 µM) | 7 | Cc1nn(C(C)C)cc1-n1c(=O)n(C)c2cnc3ccc(-c4ccc(N)nc4)cc3c21 [Example 23.2, 8-(6-Amino-pyridin-3-yl)-1-(1-isopropyl-3-methyl-1H-pyrazol-4-yl)-3-methyl-1,3-dihydro-imidazo[4,5-c]quinolin-2-one]
44 | > 435 | 94 | COCc1cncc(-c2ccc3ncc4c(c3c2)n(-c2cn(C)nc2Cl)c(=O)n4C)c1 [Example 54.2, 1-(3-Chloro-1-methyl-1H-pyrazol-4-yl)-8-(5-methoxymethyl-pyridin-3-yl)-3-methyl-1,3-dihydro-imidazo[4,5-c]quinolin-2-one]
58 | 26 (≈ 52.3 µM) | 10 | CCOc1ccc(-c2ccc3ncc4c(c3c2)n(-c2cn(CC(=O)N3CCC3)nc2C)c(=O)n4C)cn1 [Example 138, 1-[1-(2-Azetidin-1-yl-2-oxo-ethyl)-3-methyl-1H-pyrazol-4-yl]-8-(6-ethoxy-pyridin-3-yl)-3-methyl-1,3-dihydro-imidazo[4,5-c]quinolin-2-one]
51 | 84 (≈ 192 µM) | < 3 | Cc1nn(C)cc1-n1c(=O)n(C)c2cnc3ccc(-c4cncc(OC(F)F)c4)cc3c21 [Example 183, 8-(5-Difluoromethoxy-pyridin-3-yl)-1-(1,3-dimethyl-1H-pyrazol-4-yl)-3-methyl-1,3-dihydro-imidazo[4,5-c]quinolin-2-one]
